Results published in ChEMBL document CHEMBL6153083, “Synthesis, Structural Modification, and Antismall Cell Lung Cancer Activity of 3-Arylisoquinolines with Dual Inhibitory Activity on Topoisomerase I and II” (J Med Chem, 2025).
The source made the active and inactive calls. The rule behind the calls is not given here.

Legend:
[1] = Inhibition of PI3K/AKT/mTOR signalling pathway in human NCI-H446 cells assessed as decrease in mTOR level at 1 to 8 uM incubated for 48 hrs by Western blot analysis; assay type: cell-based; conditions: dose 1-8 µM
NCI-H1048 [2] = test: Induction of apoptosis in human NCI-H1048 cells assessed as increase in cleaved caspase-9 level incubated for 48 hrs by Western blot analysis; assay type: functional, cell-based
NCI-H446 [3] = test: Induction of apoptosis in human NCI-H446 cells assessed as decrease in Bcl-2 level incubated for 48 hrs by Western blot analysis; assay type: functional, cell-based; conditions: dose 1-8 µM
NCI-H82 = test: Antiproliferative activity against human NCI-H82 cells incubated for 72 hrs; assay type: functional, cell-based; conditions: NCI-H82, 72 h
[4] = Inhibition of PI3K/AKT/mTOR signalling pathway in human NCI-H1048 cells assessed as decrease in PI3K phosphorylation at 1 to 8 uM incubated for 48 hrs by Western blot analysis; assay type: cell-based; conditions: dose 1-8 µM
NCI-H446 [5] = test: Antitumor activity against human NCI-H446 cells xenografted in BALB/c nude mouse at 10 mg/kg, ip for 21 days relative to control; assay type: functional; conditions: NCI-H446, 504 h, time 21 day, read-out: TGI
[6] = Inhibition of PI3K/AKT/mTOR signalling pathway in human NCI-H1048 cells assessed as decrease in mTOR level at 1 to 8 uM incubated for 48 hrs by Western blot analysis; assay type: cell-based; conditions: dose 1-8 µM
NCI-H1048 [7] = test: Induction of mitochondrial dysfunction in human NCI-H1048 cells assessed as increase in ROS level at 1 to 8 uM incubated for 48 hrs by DCFH-DA staining based flow cytometry; assay type: functional, cell-based; conditions: dose 1-8 µM
[8] = Antiproliferative activity against human L02 cells incubated for 72 hrs; assay type: toxicity, cell-based
[9] = Toxicity in BALB/c nude mouse xenografted with human NCI-H446 cells assessed as deleterious effect in lungs at 10 to 20 mg/kg, ip for 21 days by H and E staining based analysis; assay type: organism-based; conditions: in vivo, 504 h, dose 10-20 mg/kg, time 21 day
NCI-H1048 [10] = test: Induction of apoptosis in human NCI-H1048 cells assessed as increase in cleaved caspase-3 level incubated for 48 hrs by Western blot analysis; assay type: functional, cell-based
[11] = AUC (0 to infinity) in Sprague-Dawley rat at 10 mg/kg, ip measured after 24 hrs by LC-MS/MS analysis; assay type: ADME, organism-based; conditions: in vivo
[12] = Antiproliferative activity against human NCI-H196 cells incubated for 72 hrs; assay type: functional, cell-based; conditions: NCI-H196, 72 h
[13] = Tmax in Sprague-Dawley rat at 10 mg/kg, ip measured after 24 hrs by LC-MS/MS analysis; assay type: ADME, organism-based; conditions: in vivo
NCI-H1048 [14] = test: Induction of apoptosis in human NCI-H1048 cells assessed as reduction in cell viability incubated for 48 hrs by Geimsa staining based analysis; assay type: functional
NCI-H1048 [15] = test: Induction of cell cycle arrest in human NCI-H1048 cells assessed as accumulation at S phase incubated for 48 hrs by PI staining based flow cytometry; assay type: functional
NCI-H446 [16] = test: Antiproliferative activity against human NCI-H446 cells incubated for 72 hrs; assay type: functional, cell-based; conditions: NCI-H446, 72 h
NCI-H1048 [17] = test: Induction of DNA damage in human NCI-H1048 cells incubated for 48 hrs by comet assay; assay type: functional, cell-based; conditions: dose 1-8 µM
NCI-H1048 [18] = test: Induction of early apoptosis in human NCI-H1048 cells incubated for 48 hrs by Annexin V-FITC/PI staining based flow cytometry; assay type: functional, cell-based; conditions: dose 1-8 µM
NCI-H446 [19] = test: Inhibition of clonogenesis in human NCI-H446 cells incubated for 14 to 21 days by crystal violet staining based analysis; assay type: functional, cell-based; conditions: dose 0.375-3 µM, time 14-21 day
NCI-H446 [20] = test: Inhibition of cell migration in human NCI-H446 cells incubated for 24 hrs by transwell assay; assay type: functional, cell-based; conditions: dose 0.375-3 µM
[21] = Half life in Sprague-Dawley rat at 10 mg/kg, ip measured after 24 hrs by LC-MS/MS analysis; assay type: ADME, organism-based; conditions: in vivo
NCI-H446 [22] = test: Induction of mitochondrial membrane permeability in human NCI-H446 cells assessed as increase in cytochrome C release at 1 to 8 uM incubated for 48 hrs by Western blot analysis; assay type: functional, cell-based; conditions: dose 1-8 µM
NCI-H1048 [23] = test: Inhibition of cell proliferation in human NCI-H1048 cells incubated for 24 hrs by EdU incorporation assay; assay type: functional, cell-based; conditions: dose 0.375-3 µM
[24] = Toxicity in BALB/c nude mouse xenografted with human NCI-H446 cells assessed as deleterious effect in kidney at 10 to 20 mg/kg, ip for 21 days by H and E staining based analysis; assay type: organism-based; conditions: in vivo, 504 h, dose 10-20 mg/kg, time 21 day
NCI-H1048 [25] = test: Induction of apoptosis in human NCI-H1048 cells assessed as decrease in Bcl-2 level incubated for 48 hrs by Western blot analysis; assay type: functional, cell-based
[26] = Toxicity in BALB/c nude mouse xenografted with human NCI-H446 cells assessed as deleterious effect in heart at 10 to 20 mg/kg, ip for 21 days by H and E staining based analysis; assay type: organism-based; conditions: in vivo, 504 h, dose 10-20 mg/kg, time 21 day
[27] = Inhibition of PI3K/AKT/mTOR signalling pathway in human NCI-H446 cells assessed as decrease in AKT level at 1 to 8 uM incubated for 48 hrs by Western blot analysis; assay type: cell-based; conditions: dose 1-8 µM
NCI-H446 [28] = test: Induction of early apoptosis in human NCI-H446 cells incubated for 48 hrs by Annexin V-FITC/PI staining based flow cytometry; assay type: functional, cell-based; conditions: dose 1-8 µM
NCI-H1048 [29] = test: Induction of mitochondrial membrane permeability in human NCI-H1048 cells assessed as increase in cytochrome C release at 1 to 8 uM incubated for 48 hrs by Western blot analysis; assay type: functional, cell-based; conditions: dose 1-8 µM
NCI-H446 [30] = test: Inhibition of cell proliferation in human NCI-H446 cells incubated for 24 hrs by EdU incorporation assay; assay type: functional, cell-based; conditions: dose 0.375-3 µM
[31] = Cmax in Sprague-Dawley rat at 10 mg/kg, ip measured after 24 hrs by LC-MS/MS analysis; assay type: ADME, organism-based; conditions: in vivo
[32] = MRT (0 to infinity) in Sprague-Dawley rat at 10 mg/kg, ip measured after 24 hrs by LC-MS/MS analysis; assay type: ADME, organism-based; conditions: in vivo
NCI-H1048 [33] = test: Induction of apoptosis in human NCI-H1048 cells at 1.75 to 14 uM incubated for 48 hrs by Annexin V-FITC/PI staining based flow cytometry; assay type: functional, cell-based; conditions: dose 1.75-14 µM
[34] = Inhibition of PI3K/AKT/mTOR signalling pathway in human NCI-H1048 cells assessed as decrease in AKT level at 1.75 to 14 uM incubated for 48 hrs by Western blot analysis; assay type: cell-based; conditions: dose 1.75-14 µM
NCI-H446 [35] = test: Induction of apoptosis in human NCI-H446 cells assessed as formation of cellular fragments at 1 to 8 uM incubated for 48 hrs by Annexin V-FITC/PI staining based flow cytometry; assay type: functional, cell-based; conditions: dose 1-8 µM
NCI-H1048 [36] = test: Induction of mitochondrial membrane permeability in human NCI-H1048 cells assessed as increase in cytochrome C release at 1.75 to 14 uM incubated for 48 hrs by Western blot analysis; assay type: functional, cell-based; conditions: dose 1.75-14 µM
NCI-H1048 [37] = test: Induction of mitochondrial dysfunction in human NCI-H1048 cells assessed as increase in ROS level at 1.75 to 14 uM incubated for 48 hrs by DCFH-DA staining based flow cytometry; assay type: functional, cell-based; conditions: dose 1.75-14 µM
[38] = Inhibition of PI3K/AKT/mTOR signalling pathway in human NCI-H1048 cells assessed as decrease in mTOR level at 1.75 to 14 uM incubated for 48 hrs by Western blot analysis; assay type: cell-based; conditions: dose 1.75-14 µM

Row | Structure (SMILES) | inhibition [1] | Activity (NCI-H1048 [2]) | Activity (NCI-H446 [3]) | IC50 (NCI-H82) [µM] | inhibition in vivo at 10 mg/kg (NCI-H446 [5]) [%] | IC50 at 72 h [8] [µM] | Activity [9] | Activity (NCI-H1048 [10]) | AUC(0-inf) [11] [µg·h/mL] | IC50 [12] [µM] | Tmax [13] [h] | Activity (NCI-H1048 [14]) | Activity (NCI-H1048 [15]) | IC50 (NCI-H446 [16]) [µM] | Activity (NCI-H1048 [17]) | inhibition (NCI-H446 [19]) | inhibition (NCI-H446 [20]) | half-life [21] [h] | inhibition (NCI-H1048 [23]) | Activity [24] | further results
1 | CC1CC(C)CN(Cc2cc3c(cc2-c2cc4ccc5c(c4cn2)OCO5)OCO3)C1 (stereo not given) | Active | Dose-dependent-effect | Dose-dependent-effect | 2.25 | 75.2 | 29.1 | Non-toxic | Dose-dependent-effect | 0.741 | 9.51 | 0.25 | Dose-dependent-effect | Dose-dependent-effect | 1.3 | Dose-dependent-effect | Dose-dependent-effect | Dose-dependent-effect; Displayed Stronger Inhibitory Effect Than Etoposide | 3.38 | Dose-dependent-effect; Compound Effect Surpassed Etoposide Effect | Non-toxic | inhibition [4]: Active; Pronounced Effect Was Observed In Human Nci-H1048 Cells Than In Human Nci-H446 Cells; inhibition [6]: Active; Activity (NCI-H1048 [7]): Active; Activity (NCI-H1048 [18]): Dose-dependent-effect; Exhibited Stronger Effect Than Etoposide; Activity (NCI-H446 [22]): Active; Activity (NCI-H1048 [25]): Dose-dependent-effect; Activity [26]: Non-toxic; inhibition [27]: Active; Activity (NCI-H446 [28]): Dose-dependent-effect; Exhibited Stronger Effect Than Etoposide; Activity (NCI-H1048 [29]): Active; inhibition (NCI-H446 [30]): Dose-dependent-effect; Exhibited Similar Inhibitory Effect To That Of Etoposide At Same Concentration; Cmax [31]: 0.145 µg/mL; MRT inf [32]: 5.19 h
2 | CCC1CCCC(C)N1Cc1cc2c(cc1-c1cc3ccc4c(c3cn1)OCO4)OCO2 (stereo not given) | Active | Dose-dependent-effect | Dose-dependent-effect | 2.41 | 69.2 | 26.1 | Non-toxic | Dose-dependent-effect | 1.21 | 13.9 | 0.25 | Dose-dependent-effect | Dose-dependent-effect | 1.32 | Dose-dependent-effect | Dose-dependent-effect | Dose-dependent-effect | 4.86 | Dose-dependent-effect; Compound Effect Surpassed Etoposide Effect | Non-toxic | Activity (NCI-H1048 [33]): Active; Less Effective Than Etoposide; inhibition [34]: Active; Activity (NCI-H446 [35]): Active; Activity Similar To Etoposide; Activity (NCI-H1048 [36]): Active; Activity (NCI-H1048 [37]): Active; Activity (NCI-H1048 [25]): Dose-dependent-effect; Activity [26]: Non-toxic; inhibition [38]: Active; inhibition [27]: Active; inhibition (NCI-H446 [30]): Dose-dependent-effect; Exhibited Similar Inhibitory Effect To That Of Etoposide At Same Concentration; Cmax [31]: 0.228 µg/mL; MRT inf [32]: 6.14 h
